≈ marks a conversion by molar mass, not a printed value. Like-named read-outs stand apart in the source and are kept apart here. Where only a bound is given, the exact number is not on record here.

Usually MIC stands for the smallest concentration in the dilution series that meets the test's criterion for growth inhibition. By IC50 is commonly meant the midpoint of a concentration-inhibition curve.

Assay [1] has as its system Klebsiella pneumoniae: Ciprofloxacin-resistant isolate, expresses ESBL, clinical isolate (KP-3700). Briefly: MIC determination (CLSI), KP-3700. As to conditions: overnight incubation, lower of duplicate values. It is filed as cell-based. The method, then: (§1) The in vitro antibacterial activity of compounds described in the Examples was evaluated by minimum inhibitory concentration (MIC) testing according to Clinical and Laboratory Standards Institute (CLSI) Guidelines. See: Clinical and Laboratory Standards Institute. Methods for Dilution Antimicrobial Susceptibility Tests for Bacteria that Grow Aerobically; Approved Standard-Eighth Edition. CLSI document M7-A8 [ISBN 1-56238-689-1]. Clinical and Laboratory Standards Institute, 940 West Valley Road, Suite 1400, Wayne, Pa. 19087-1898 USA, 2006; also Clinical and Laboratory Standards Institute. Performance Standards for Antimicrobial Susceptibility Testing; Twentieth Informational Supplement. CLSI document M100-S20 [ISBN1-56238-716-2]. Clinical and Laboratory Standards Institute.
(§2) The MIC determination is a standard laboratory method for evaluating the antibacterial activity of a compound. The MIC represents the lowest drug concentration that inhibits visible growth of bacteria following overnight incubation. […] Typically, the drug concentration range is broken down into 2-fold increments (e.g. 0.06 μg/mL, 0.12 μg/mL. 0.25 μg/mL, 0.50 μg/mL, 1.0 μg/mL, etc.) and the various drug concentrations are all individually incubated overnight with approximately the same number of bacteria. The MIC is then determined by visually inspecting the drug effect at each concentration, and identifying the lowest drug concentration that has inhibited bacterial growth as compared to the drug free control. Typically, bacteria continue to grow at drug concentrations lower than the MIC and don't grow at concentrations at and above the MIC.
(§3) The MIC values described in Tables 2 and 3 below were derived from assays wherein each test compound was evaluated in duplicate. In cases where the duplicate values varied by 0-2-fold, the lower of the two values was reported below. Generally speaking, if the duplicate values varied by more than 2-fold, the assay was considered non-valid and was repeated until the variation between duplicate runs was ≦2-fold. In line with the CLSI guidelines referred to above, both control organisms and reference compounds were utilized in each MIC assay to provide proper quality control. MIC values generated with these control organisms and reference compounds were required to fall within a defined range for the assay to be considered valid and be included herein. Those skilled in the art will recognize that MIC values can and do vary from experiment to experiment. Generally speaking, it should be recognized that MIC values often vary +/−2-fold from experiment to experiment. While a single MIC is reported for each compound and each microorganism, the reader should not conclude that each compound was only tested once. Several of the compounds were subjected to multiple tests. The data reported in Tables 2 and 3 is reflective of the compounds relative activity and different MICs may have been generated on these occasions in line with the guidelines described above.
(§4) The following bacterial strains were used in these MIC determinations:
(3) Klebsiella pneumoniae: Ciprofloxacin-resistant isolate, expresses extended-spectrum beta-lactamases (ESBL), clinical isolate, labeled as KP-3700 in Table 5.

The subject of assay [2] is Acinetobacter baumannii/haemolyticus: Multidrug-resistant clinical isolate (AB-3167). As to the kind of experiment: MIC determination (CLSI), AB-3167. The format is cell-based. As to conditions: Acinetobacter baumannii/haemolyticus multidrug-resistant clinical isolate; overnight incubation; lower of duplicate values; read-out: AB-3167 (MIC). As for the experimental part:
as §1, §2, §3, §4
(1) Acinetobacter baumannii/haemolyticus: Multidrug-resistant clinical isolate labeled as AB-3167 in Table 5;

Assay [3] concerns the target T1, Pseudomonas aeruginosa LpxC enzyme (Pseudomonas aeruginosa, UniProt P47205).
T1 construct: made in house; host or cells: E. coli
T1 sequence (P47205 1-303): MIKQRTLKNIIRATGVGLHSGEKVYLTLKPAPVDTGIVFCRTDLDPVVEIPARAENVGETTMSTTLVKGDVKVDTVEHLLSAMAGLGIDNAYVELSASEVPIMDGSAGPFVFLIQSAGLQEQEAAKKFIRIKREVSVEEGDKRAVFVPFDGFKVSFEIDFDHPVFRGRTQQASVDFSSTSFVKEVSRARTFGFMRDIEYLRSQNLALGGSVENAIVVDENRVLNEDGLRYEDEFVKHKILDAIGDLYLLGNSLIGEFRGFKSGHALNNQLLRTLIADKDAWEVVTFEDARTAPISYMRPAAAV
As to the kind of experiment: IC50 assay, LpxC enzyme from P. aeruginosa (BioTrove RapidFire mass spectrometry). The format is biochemical. The method, then:
In order to assess the compounds biological activity, selected in-vitro assays were conducted on selected compounds of Formula I. One of the assays measured the compounds ability to disrupt the synthesis of lipopolysaccharide, LPS, which is a component of the outer membrane of Gram-negative bacteria. Disruption of this synthesis is lethal to the bacteria. The assay determined the compound's ability to inhibit LpxC, which is the first enzyme in the biosynthetic pathway for LPS (measured as IC50). Additionally, MICs (minimal inhibitory concentrations) were determined for several bacteria. The specific protocols are described below:
A) IC50 Assay, LpxC Enzyme from P. Aeruginosa Labeled as PA LpxC Enzyme IC50):
At the end of 1 hour, 5 ul of 1 N HCl was added to stop the enzyme reaction, the plates were centrifuged, and then processed with the BioTrove Rapidfire HTMS Mass Spectrometry System. A no-enzyme control was used in calculating the IC50 values from the percent conversion values.

Assay [4] deals with Pseudomonas aeruginosa UI-18: Wild-type (PA-7). Briefly: MIC determination (CLSI), PA-7. The format is cell-based. As to conditions: Pseudomonas aeruginosa UI-18 wild-type; overnight incubation; lower of duplicate values; read-out: PA-7 (MIC). As for the experimental part:
as §1, §2, §3, §4
(4) Pseudomonas aeruginosa UI-18: Wild-type, labeled as PA-7 in Table 5;

Assay [5] deals with Escherichia coli EC-1: VOGEL, mouse virulent. As to the kind of experiment: MIC determination (CLSI), EC-1. It is filed as cell-based. As to conditions: Escherichia coli, read-out: EC-1 (MIC). As for the experimental part: as §1, §2, §3, §4
(2) Escherichia coli EC-1: VOGEL, mouse virulent labeled as EC-1 in Table 5;

[6] abbreviates: P. aeruginosa LpxC enzyme 0.1 nM, 25° C., 1 hour, pH 8.0, read-out: PA: IC50.

For `CC(CCn1cc(-c2ccc(-c3ccno3)cc2)cn1)(C(=O)NO)S(C)(=O)=O` (stereo not shown) [Example 73, N-hydroxy-2-methyl-2-(methylsulfonyl)-4-{4-[4-(1,2-oxazol-5-yl)phenyl]-1H-pyrazol-1-yl}butanamide], the “KP-3700 (MIC)” value in assay [1] stood at 16 µg/mL. Also, the MIC was > 64 µg/mL in assay [2], 2 µg/mL (≈ 4.95 µM) in assay [4] and 4 µg/mL (≈ 9.89 µM) in assay [5]. Also, in assay [3] (setting [6]), the IC50 came out at 0.35 nM.

Turning to `C[C@@](CCn1cc(-c2cnccn2)cn1)(C(=O)NO)S(C)(=O)=O` [Example 8, (2R)—N-hydroxy-2-methyl-2-(methylsulfonyl)-4-[4-(pyrazin-2-yl)-1H-pyrazol-1-yl]butanamide], the “KP-3700 (MIC)” value in assay [1] is >64.0 µg/mL. Further, the MIC in assay [2], in assay [4] and in assay [5] was > 64 µg/mL in each case. In assay [3] (setting [6]), the IC50 is > 100 nM.

Turning to `CC(CCn1cc(COc2ccc3ccccc3c2)nn1)(C(=O)NO)S(C)(=O)=O` (stereo not shown) [Example 30, N-hydroxy-2-methyl-2-(methylsulfonyl)-4-{4-[(naphthalen-2-yloxy)methyl]-1H-1,2,3-triazol-1-yl}butanamide], in assay [1], the “KP-3700 (MIC)” value was >64.0 µg/mL. Further, the MIC in assay [2] was > 64 µg/mL; in assay [4], 32 µg/mL (≈ 76.5 µM); in assay [5] it was > 64 µg/mL. In addition, the IC50 in assay [3] (setting [6]) turned out to be 3.76 nM.

With `CC(CCn1cc(CSc2cccc(Cl)c2)nn1)(C(=O)NO)S(C)(=O)=O` (stereo not shown) [Example 27, 4-(4-{[(3-chlorophenyl)sulfanyl]methyl}-1H-1,2,3-triazol-1-yl)-N-hydroxy-2-methyl-2-(methylsulfonyl)butanamide], the “KP-3700 (MIC)” value in assay [1] was >64.0 µg/mL. Moreover, the figures for the MIC in assay [2], in assay [4] and in assay [5] were > 64 µg/mL, 64 µg/mL (≈ 153 µM) and > 64 µg/mL, respectively. Besides, in assay [3] (setting [6]), the IC50 amounted to 12.2 nM.

Regarding `C[C@@](CCn1cc(-c2cnc3ccccc3n2)cn1)(C(=O)NO)S(C)(=O)=O` [Example 9, (2R)—N-hydroxy-2-methyl-2-(methylsulfonyl)-4-[4-(quinoxalin-2-yl)-1H-pyrazol-1-yl]butanamide], the “KP-3700 (MIC)” value in assay [1] is >64.0 µg/mL. Besides, the MIC in assay [2], in assay [4] and in assay [5] was > 64 µg/mL throughout. The concentration for half-maximal inhibition (IC50) in assay [3] (setting [6]) turned out to be 19 nM.

Consider `C[C@@](CCn1cc(C2CCCC2)cn1)(C(=O)NO)S(C)(=O)=O` [Example 3, (2R)-4-(4-cyclopentyl-1H-pyrazol-1-yl)-N-hydroxy-2-methyl-2-(methylsulfonyl)butanamide], for which the “KP-3700 (MIC)” value in assay [1] was found to be 64 µg/mL. Also, the MIC in assay [2] was 64 µg/mL (≈ 194 µM); in assay [4] it was 8 µg/mL (≈ 24.3 µM); in assay [5] it was 64 µg/mL (≈ 194 µM). Further, the IC50 in assay [3] (setting [6]) was 14.3 nM.

`CC(CCn1cc(-c2ccc(Cl)cn2)cn1)(C(=O)NO)S(C)(=O)=O` (stereo not shown) [Example 54, 4-[4-(5-chloropyridin-2-yl)-1H-pyrazol-1-yl]-N-hydroxy-2-methyl-2-(methylsulfonyl)butanamide]: the “KP-3700 (MIC)” value in assay [1] is >64.0 µg/mL. Further, the results for the minimum inhibitory concentration (MIC) in assay [2], in assay [4] and in assay [5] were > 64 µg/mL, 16 µg/mL (≈ 42.9 µM) and > 64 µg/mL, respectively. For the same molecule, in assay [3] (setting [6]), the IC50 was 6.94 nM.

On to `Cc1ccc(-c2cn(CCC(C)(C(=O)NO)S(C)(=O)=O)nn2)cc1` (stereo not shown) [Example 37, N-hydroxy-2-methyl-4-[4-(4-methylphenyl)-1H-1,2,3-triazol-1-yl]-2-(methylsulfonyl)butanamide], for which, in assay [1], the “KP-3700 (MIC)” value worked out at 64 µg/mL. The figures for the MIC in assay [2], in assay [4] and in assay [5] were > 64 µg/mL, 4 µg/mL (≈ 11.4 µM) and 16 µg/mL (≈ 45.4 µM), respectively. This molecule also had an IC50 in assay [3] of 1.39 nM.

For the molecule `CC(CCn1cc(-c2ccc3cnc(N)cc3c2)cn1)(C(=O)NO)S(C)(=O)=O` (stereo not shown) [Example 69, 4-[4-(3-aminoisoquinolin-6-yl)-1H-pyrazol-1-yl]-N-hydroxy-2-methyl-2-(methylsulfonyl)butanamide], the “KP-3700 (MIC)” value in assay [1] was >64.0 µg/mL. For the same molecule, the MIC in assay [2], in assay [4] and in assay [5] was > 64 µg/mL in each case. For the same molecule, the IC50 in assay [3] (setting [6]) was determined as 2.57 nM.

As for `C[C@@](CCn1cc(-c2ccc(F)c(F)c2F)nn1)(C(=O)NO)S(C)(=O)=O` [Example 18, (2R)-N-hydroxy-2-methyl-2-(methylsulfonyl)-4-[4-(2,3,4-trifluorophenyl)-1H-1,2,3-triazol-1-yl]butanamide], the IC50 in assay [3] (setting [6]) stood at 3.29 nM.

For the molecule `CC(CCn1cc(CSc2ccc(Br)cc2)nn1)(C(=O)NO)S(C)(=O)=O` (stereo not shown) [Example 25, 4-(4-{[(4-bromophenyl)sulfanyl]methyl}-1H-1,2,3-triazol-1-yl)-N-hydroxy-2-methyl-2-(methylsulfonyl)butanamide], the IC50 in assay [3] (setting [6]) came to 10.1 nM.

Regarding `C[C@@](CCn1cc(-c2ccc(-c3ncco3)cc2)cn1)(C(=O)NO)S(C)(=O)=O` [Example 12, (2R)—N-hydroxy-2-methyl-2-(methylsulfonyl)-4-{4-[4-(1,3-oxazol-2-yl)phenyl]-1H-pyrazol-1-yl}butanamide], the IC50 in assay [3] (setting [6]) is 0.963 nM.

In the case of `C[C@@](CCn1cnc(-c2ccccc2)c1)(C(=O)NO)S(C)(=O)=O` (stereo in doubt) [Example 13, N-hydroxy-2-methyl-2-(methylsulfonyl)-4-(4-phenyl-1H-imidazol-1-yl)butanamide], the “KP-3700 (MIC)” value in assay [1] was >64.0 µg/mL. Further, the MIC in assay [2], in assay [4] and in assay [5] was > 64 µg/mL in each case.

Turning to `C[C@@](CCn1cc(C2=CCCCC2)cn1)(C(=O)NO)S(C)(=O)=O` [Example 1, (2R)-4-[4-(cyclohex-1-en-1-yl)-1H-pyrazol-1-yl]-N-hydroxy-2-methyl-2-(methylsulfonyl)butanamide], the “KP-3700 (MIC)” value in assay [1] was found to be 16 µg/mL. The MIC in assay [2] is > 64 µg/mL; in assay [4], 1 µg/mL (≈ 2.93 µM); in assay [5] it was 8 µg/mL (≈ 23.4 µM).

Take `CC(CCn1cc(-c2cn(Cc3ccccc3)cn2)cn1)(C(=O)NO)S(C)(=O)=O` (stereo not shown) [Example 83, 4-[4-(1-benzyl-1H-imidazol-4-yl)-1H-pyrazol-1-yl]-N-hydroxy-2-methyl-2-(methylsulfonyl)butanamide]: the IC50 in assay [3] (setting [6]) was > 100 nM.

For the molecule `CC(CCn1cc(-c2cn(-c3ccc(F)cc3)cn2)cn1)(C(=O)NO)S(C)(=O)=O` (stereo not shown) [Example 89, 4-{4-[1-(4-fluorophenyl)-1H-imidazol-4-yl]-1H-pyrazol-1-yl}-N-hydroxy-2-methyl-2-(methylsulfonyl)butanamide], in assay [3] (setting [6]), the IC50 was > 100 nM.
